Key:
IDH1 R132C = IDH1 R132C (Homo sapiens, UniProt O75874, R132C); test: Effect on IDH1 R132C enzyme activity (NADPH consumption, diaphorase/resazurin fluorescence); type: biochemical; conditions: 80 ng IDH1 R132C, α-KG 2 mM, NADPH 20 μM, 60 min preincubation
Protocol: (§1) Test method: The enzyme activity of IDH1 converting α-KG to 2HG was measured by the consumption of NADPH. After the enzymatic reaction finished, the amount of residual NADPH can be reflected by fluorescence signal generated by the addition of catalytically excessive diphhorase and reazurin.
(§2) 50 μL mixed liquid of substrate α-KG and NADPH (final concentration of substrate α-KG was 2 mM, final concentration of NADPH was 20 μM), and the plate was incubated in dark for 60 min at room temperature. Detection reaction: 50 μL 1×detection buffer diluted 0.01 unit diabase and 30 μM resazurin were added into each well, and the mixture was incubated in dark at room temperature for 10 min. […] IC50 value was calculated by GraphPad Prism software.

IDH1 R132H = IDH1 R132H (Homo sapiens, UniProt O75874, R132H); test: Effect on IDH1 R132H enzyme activity (NADPH consumption, diaphorase/resazurin fluorescence); type: biochemical; conditions: 100 ng IDH1 R132H, α-KG 1 mM, NADPH 20 μM, 60 min preincubation
Protocol: as §1
as §2, with “α-KG was 1 mM, final” for “α-KG was 2 mM, final”, “and the mixture was incubated” for “and the plate was incubated”

[1] = test system: 2HG of fibrosarcoma cell line HT1080 expressing IDH1 mutant IDH1-R132C; test: Inhibition of 2HG of fibrosarcoma cell line HT1080; type: cell-based; conditions: Homo sapiens, HT-1080; HT1080 cells, 48 hours with compound, 2HG in cell supernatant; read-out: HT1080 2HG inhibitory IC50
Protocol: In this experiment, the inhibitory activity of the compound of the disclosure on the concentration level of 2HG of the fibrosarcoma cell line HT1080 was determined by the following method.
The cells were digested with trypsin and inoculated into a 24 well cell culture plate with a density of 10000 cells/well. The cells were cultured in a 5% CO2 cell incubator at 37° C. After overnight culture, the test compound was added to the cells. The final concentration of DMSO was 0.1%, and DMSO was used as control. The plate was then placed in a cell incubator and cultured for 48 hours.
Detection of 2HG: 2-HG was measured by PicoProbe™ D-2-Hydroxyglutarate (D2HG) Assay Kit of BioVision. 500 uL cell supernatant was taken from each well and added to a 10 kD centrifuge column, 12000 g, and centrifuged for 10 minutes to remove the effect of enzyme activity. […] IC50 value was calculated by GraphPad Prism software.
The inhibition rate of the sample was obtained by the following formula: […]
IC50 value was calculated by GraphPad Prism software.

Chain of IDH1 R132H (O75874 whole entry R132H): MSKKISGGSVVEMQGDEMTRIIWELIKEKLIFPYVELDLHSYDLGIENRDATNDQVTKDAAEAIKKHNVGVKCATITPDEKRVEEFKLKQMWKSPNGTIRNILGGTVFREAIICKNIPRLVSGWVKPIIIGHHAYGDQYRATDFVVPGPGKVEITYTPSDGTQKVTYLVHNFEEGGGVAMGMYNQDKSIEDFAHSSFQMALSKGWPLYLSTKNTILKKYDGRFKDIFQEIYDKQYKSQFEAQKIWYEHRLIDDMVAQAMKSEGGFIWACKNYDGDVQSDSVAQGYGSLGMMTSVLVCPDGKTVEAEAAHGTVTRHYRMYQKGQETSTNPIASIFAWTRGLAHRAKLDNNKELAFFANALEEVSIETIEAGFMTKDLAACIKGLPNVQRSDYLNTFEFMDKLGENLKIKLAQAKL
Chain of IDH1 R132C (O75874 whole entry R132C): as the sequence (O75874 whole entry R132H) above, with H132C counted along it

Row | Structure (SMILES) | IC50 (IDH1 R132C) | IC50 (IDH1 R132H) | IC50 [1]
1 | CC(C)[C@H]1COC(=O)N1c1ccnc(N[C@@H](C)c2ncn3c2CCc2cc(C(F)(F)F)ccc2-3)n1 [Compound 3, (S)-4-isopropyl-3-(2-(((S)-1-(7-trifluoromethyl-4,5-dihydroimidazo[1,5-a]quinolin-3-yl)ethyl)amino)pyrimidin-4-yl)oxazolidin-2-one] | < 50 nM | < 50 nM | 13 nM
2 | C[C@H](Nc1nc(Cl)cc(N2C(=O)OC[C@@H]2[C@H](C)F)n1)c1ncn2c1CCc1cc(C(F)(F)F)ccc1-2 [Compound 7, (R)-3-(6-chloro-2-(((S)-1-(7-trifluoromethyl-4,5-dihydroimidazo[1,5-a]quinolin-3-yl)ethyl)amino)pyrimidin-4-yl)-4-((S)-1-fluoroethyl)oxazolidin-2-one] | < 50 nM | < 50 nM | 35 nM
3 | C[C@H](Nc1nccc(N2C(=O)OC3(COC3)[C@@H]2c2ccccc2)n1)c1ncn2c1CCc1cc(C(F)(F)F)ccc1-2 [Compound 16, (S)-8-phenyl-7-(2-(((S)-1-(7-trifluoromethyl-4,5-dihydroimidazo[1,5-a]quinolin-3-yl)ethyl)amino)pyrimidin-4-yl)-2,5-dioxa-7-azaspiro[3.4]octan-6-one] | < 50 nM | < 50 nM | 140 nM
4 | CC(C)[C@H]1COC(=O)N1c1ccnc(N[C@@H](C)c2ncn3c2CSc2cc(C(F)(F)F)ccc2-3)n1 [Compound 12, (S)-4-isopropyl-3-(2-(((S)-1-(7-trifluoromethyl-4H-benzo[b]imidazo[1,5-d][1,4]thiazin-3-yl)ethyl)amino)pyrimidin-4-yl)oxazolidin-2-one] | < 50 nM | < 50 nM | 24 nM
5 | CC(C)[C@@H]1N(c2ccnc(N[C@@H](C)c3ncn4c3CCc3cc(C(F)(F)F)ccc3-4)n2)C(=O)OC1(C)C [Compound 18, (S)-4-isopropyl-5,5-dimethyl-3-(2-(((S)-1-(7-trifluoromethyl-4,5-dihydroimidazo[1,5-a]quinolin-3-yl)ethyl)amino)pyrimidin-4-yl)oxazolidin-2-one] | < 50 nM | 50 to 500 nM | 26 nM
6 | C[C@H](Nc1nccc(N2C(=O)OC[C@@H]2[C@H](C)F)n1)c1ncn2c1CSc1cc(C(F)(F)F)ccc1-2 [Compound 21, (R)-4-((S)-1-fluoroethyl)-3-(2-(((S)-1-(7-trifluoromethyl-4H-benzo[b]imidazo[1,5-d][1,4]thiazin-3-yl)ethyl)amino)pyrimidin-4-yl)oxazolidin-2-one] | < 50 nM | < 50 nM | 17 nM
7 | C[C@H](Nc1nccc(N2C(=O)OC[C@@H]2[C@H](C)F)n1)c1ncn2c1CCc1c(Cl)cccc1-2 [Compound 29, (R)-3-(2-(((S)-1-(6-chloro-4,5-dihydroimidazo[1,5-a]quinolin-3-yl)ethyl)amino)pyrimidin-4-yl)-4-((S)-1-fluoroethyl)oxazolidin-2-one] | 50 to 500 nM | < 50 nM | –
8 | C[C@H](Nc1nccc(N2CC3(CC3)OC2=O)n1)c1ncn2c1CCc1cc(C(F)(F)F)ccc1-2 [Compound 19, (S)-6-(2-((1-(7-trifluoromethyl-4,5-dihydroimidazo[1,5-a]quinolin-3-yl)ethyl)amino)pyrimidin-4-yl)-4-oxa-6-azaspiro[2.4]heptan-5-one] | > 500 nM | > 500 nM | –
9 | N#Cc1ccnc(N2C(=O)CC[C@H]2C(=O)N(c2cncc(F)c2)[C@H](C(=O)NC2CC(F)(F)C2)c2ccccc2Cl)c1 [AG120, reference compound] | – | – | 25 nM
10 | C[C@H](Nc1nccc(N2C(=O)OC[C@@H]2[C@H](C)F)n1)c1ncn2c1CCc1cc(Cl)ccc1-2 [Compound 4, (R)-3-(2-(((S)-1-(7-chloro-4,5-dihydroimidazo[1,5-a]quinolin-3-yl)ethyl)amino)pyrimidin-4-yl)-4-((S)-1-fluoroethyl)oxazolidin-2-one] | < 50 nM | < 50 nM | 54 nM
11 | CC1Cc2c([C@H](C)Nc3nccc(N4C(=O)OC[C@@H]4[C@H](C)F)n3)ncn2-c2ccc(C(F)(F)F)cc21 (stereo partly drawn) [Compound 10, (4R)-4-((S)-1-fluoroethyl)-3-(2-(((1S)-1-(5-methyl-7-trifluoromethyl-4,5-dihydroimidazo[1,5-a]quinolin-3-yl)ethyl)amino)pyrimidin-4-yl)oxazolidin-2-one] | 50 to 500 nM | 50 to 500 nM | –
12 | CC(C)[C@H]1COC(=O)N1c1ccnc(N[C@@H](C)c2ncn3c2CCCc2cc(C(F)(F)F)ccc2-3)n1 [Compound 9, (S)-4-isopropyl-3-(2-(((S)-1-(8-trifluoromethyl-5,6-dihydro-4H-benzo[f]imidazo[1,5-a]azepin-3-yl)ethyl)amino)pyrimidin-4-yl)oxazolidin-2-one] | < 50 nM | 50 to 500 nM | 45 nM
13 | Cc1ccc2c(c1)CCc1c([C@H](C)Nc3nccc(N4C(=O)OC[C@@H]4[C@H](C)F)n3)ncn1-2 [Compound 23, (R)-4-((S)-1-fluoroethyl)-3-(2-(((S)-1-(7-methyl-4,5-dihydroimidazo[1,5-a]quinolin-3-yl)ethyl)amino)pyrimidin-4-yl)oxazolidin-2-one] | < 50 nM | < 50 nM | 22 nM
14 | C[C@H](Nc1nccc(N2C(=O)OC[C@@H]2[C@H](C)F)n1)c1ncn2c1COc1cc(Cl)ccc1-2 [Compound 1, (R)-3-(2-((S)-1-(7-chloro-4H-benzo[b]imidazo[1,5-d][1,4]oxazin-3-yl)ethylamino)pyrimidin-4-yl)-4-((S)-1-fluoroethyl)oxazolidin-2-one] | < 50 nM | < 50 nM | 60 nM
15 | C[C@H](Nc1nccc(N2C(=O)OC[C@@H]2[C@H](C)F)n1)c1ncn2c1COc1cc(F)ccc1-2 [Compound 24, (R)-3-(2-(((S)-1-(7-fluoro-4H-benzo[b]imidazo[1,5-d][1,4]oxazin-3-yl)ethyl)amino)pyrimidin-4-yl)-4-((S)-1-fluoroethyl)oxazolidin-2-one] | < 50 nM | < 50 nM | –
16 | C[C@H](Nc1nccc(N2C(=O)OC[C@@H]2[C@H](C)F)n1)c1ncn2c1CCc1ccc(C(F)(F)F)cc1-2 [Compound 28, (R)-4-((S)-1-fluoroethyl)-3-(2-(((S)-1-(8-trifluoromethyl-4,5-dihydroimidazo[1,5-a]quinolin-3-yl)ethyl)amino)pyrimidin-4-yl)oxazolidin-2-one] | < 50 nM | < 50 nM | 13 nM
17 | COc1ccc2c(c1)OCc1c([C@H](C)Nc3nccc(N4C(=O)OC[C@@H]4[C@H](C)F)n3)ncn1-2 [Compound 25, (R)-4-((S)-1-fluoroethyl)-3-(2-(((S)-1-(7-methoxy-4H-benzo[b]imidazo[1,5-d][1,4]oxazin-3-yl)ethyl)amino)pyrimidin-4-yl)oxazolidin-2-one] | 50 to 500 nM | 50 to 500 nM | –
18 | CC1Cc2cc(C(F)(F)F)ccc2-n2cnc([C@H](C)Nc3nccc(N4C(=O)OC[C@@H]4[C@H](C)F)n3)c21 (stereo partly drawn) [Compound 14, (4R)-4-((S)-1-fluoroethyl)-3-(2-(((1S)-1-(4-methyl-7-trifluoromethyl-4,5-dihydroimidazo[1,5-a]quinolin-3-yl)ethyl)amino)pyrimidin-4-yl)oxazolidin-2-one] | 50 to 500 nM | 50 to 500 nM | –
19 | C[C@H](Nc1nccc(N2C(=O)OC[C@@H]2[C@H](C)F)n1)c1ncn2c1CCc1cc(F)ccc1-2 [Compound 11] | < 50 nM | 50 to 500 nM | –
20 | C[C@H](Nc1nccc(N2C(=O)OC[C@@H]2[C@H](C)F)n1)c1ncn2c1COc1cc(C#N)ccc1-2 [Compound 27, 3-((S)-1-((4-((R)-4-((S)-1-fluoroethyl)-2-oxyoxazolidin-3-yl)pyrimidin-2-yl)amino)ethyl)-4H-benzo[b]imidazo[1,5-d][1,4]oxazin-7-nitrile] | 50 to 500 nM | 50 to 500 nM | –
21 | CC1Oc2cc(C(F)(F)F)ccc2-n2cnc([C@H](C)Nc3nccc(N4C(=O)OC[C@@H]4[C@H](C)F)n3)c21 (stereo partly drawn) [Compound 15, (4R)-4-((S)-1-fluoroethyl)-3-(2-(((1S)-1-(4-methyl-7-trifluoromethyl-4H-benzo[b]imidazo[1,5-d][1,4]oxazin-3-yl)ethyl)amino)pyrimidin-4-yl)oxazolidin-2-one] | 50 to 500 nM | 50 to 500 nM | –
